Source: PubChem BioAssay (NCI)
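GI50 marks 50% less growth. TGI denotes the concentration required for complete inhibition of growth.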

Experiments:
Test in all cases: inhibition of tumour cell growth, NCI panel, 384-well format
SF-268 CNS = tested on: SF-268 CNS
MOLT-4 leukemia = tested on: MOLT-4 leukemia
SNB-75 CNS = tested on: SNB-75 CNS
UO-31 renal = tested on: UO-31 renal
NCI-H322M lung = tested on: NCI-H322M lung
HOP-62 NSCLC = tested on: HOP-62 NSCLC
MDA-MB-231 breast = tested on: MDA-MB-231 breast
NCI/ADR-RES ovarian = tested on: NCI/ADR-RES ovarian
SN12C renal = tested on: SN12C renal
MDA-MB-435 melanoma = tested on: MDA-MB-435 melanoma
HOP-92 NSCLC = tested on: HOP-92 NSCLC
IGROV1 ovarian = tested on: IGROV1 ovarian
HL-60(TB) leukemia = tested on: HL-60(TB) leukemia
PC-3 prostate = tested on: PC-3 prostate
UACC-62 melanoma = tested on: UACC-62 melanoma
U251 glioblastoma = tested on: U251 glioblastoma
HCT-15 colon = tested on: HCT-15 colon
SF-295 CNS = tested on: SF-295 CNS
T-47D breast = tested on: T-47D breast
UACC-257 melanoma = tested on: UACC-257 melanoma
SR leukemia = tested on: SR leukemia
HCC-2998 colon = tested on: HCC-2998 colon
SK-OV-3 ovarian = tested on: SK-OV-3 ovarian
LOX IMVI melanoma = tested on: LOX IMVI melanoma
ACHN renal = tested on: ACHN renal
COLO 205 colon = tested on: COLO 205 colon
NCI-H23 lung = tested on: NCI-H23 lung
OVCAR-3 ovarian = tested on: OVCAR-3 ovarian
DU-145 prostate = tested on: DU-145 prostate
SNB-19 CNS = tested on: SNB-19 CNS
NCI-H226 lung = tested on: NCI-H226 lung
HS 578T breast = tested on: HS 578T breast
TK-10 renal = tested on: TK-10 renal
SK-MEL-5 melanoma = tested on: SK-MEL-5 melanoma
KM12 colon = tested on: KM12 colon
EKVX NSCLC = tested on: EKVX NSCLC
MDA-MB-468 breast = tested on: MDA-MB-468 breast
BT-549 breast = tested on: BT-549 breast
RPMI-8226 leukemia = tested on: RPMI-8226 leukemia
MALME-3M melanoma = tested on: MALME-3M melanoma
SW-620 colon = tested on: SW-620 colon
HCT-116 colon = tested on: HCT-116 colon
A549 NSCLC = tested on: A549 NSCLC
OVCAR-5 ovarian = tested on: OVCAR-5 ovarian
SF-539 CNS = tested on: SF-539 CNS
CAKI-1 renal = tested on: CAKI-1 renal
HT29 colon = tested on: HT29 colon
786-0 renal = tested on: 786-0 renal
MCF7 breast = tested on: MCF7 breast
NCI-H460 NSCLC = tested on: NCI-H460 NSCLC
M14 melanoma = tested on: M14 melanoma
RXF 393 renal = tested on: RXF 393 renal
A498 renal = tested on: A498 renal
OVCAR-8 ovarian = tested on: OVCAR-8 ovarian
SK-MEL-28 melanoma = tested on: SK-MEL-28 melanoma
NCI-H522 lung = tested on: NCI-H522 lung
OVCAR-4 ovarian = tested on: OVCAR-4 ovarian

**Q.** `CC(C)C[C@H](NC(=O)[C@H](CCc1ccccc1)NC(=O)CN1CCOCC1)C(=O)N[C@@H](Cc1ccccc1)C(=O)N[C@@H](CC(C)C)C(=O)[C@@]1(C)CO1` was tested. Which GI50 (SF-268 CNS) did it give?
**A.** < 10 nM

**Q.** And the TGI (SF-268 CNS)?
**A.** < 10 nM

**Q.** What about the GI50 (MOLT-4 leukemia) of the same compound?
**A.** < 10 nM

**Q.** And the TGI (MOLT-4 leukemia)?
**A.** < 10 nM

**Q.** What about the GI50 (SNB-75 CNS) of the same compound?
**A.** 15.4 nM

**Q.** And the TGI (SNB-75 CNS)?
**A.** 30.6 nM

**Q.** And the GI50 (UO-31 renal)?
**A.** 35.9 nM

**Q.** What about the TGI (UO-31 renal) of the same compound?
**A.** 110 nM

**Q.** And the GI50 (NCI-H322M lung)?
**A.** 15.5 nM

**Q.** What about the TGI (NCI-H322M lung) of the same compound?
**A.** 33.7 nM

**Q.** And the GI50 (HOP-62 NSCLC)?
**A.** < 10 nM

**Q.** What about the TGI (HOP-62 NSCLC) of the same compound?
**A.** < 10 nM

**Q.** And the GI50 (MDA-MB-231 breast)?
**A.** < 10 nM

**Q.** And the TGI (MDA-MB-231 breast)?
**A.** < 10 nM

**Q.** And the GI50 (NCI/ADR-RES ovarian)?
**A.** 422 nM

**Q.** And the TGI (NCI/ADR-RES ovarian)?
**A.** 1610 nM

**Q.** What about the GI50 (SN12C renal) of the same compound?
**A.** 15 nM

**Q.** What about the TGI (SN12C renal) of the same compound?
**A.** 29.1 nM

**Q.** And the GI50 (MDA-MB-435 melanoma)?
**A.** < 10 nM

**Q.** What about the TGI (MDA-MB-435 melanoma) of the same compound?
**A.** 21.5 nM

**Q.** And the GI50 (HOP-92 NSCLC)?
**A.** 11.6 nM

**Q.** What about the TGI (HOP-92 NSCLC) of the same compound?
**A.** 24.3 nM

**Q.** What about the GI50 (IGROV1 ovarian) of the same compound?
**A.** 15 nM

**Q.** And the TGI (IGROV1 ovarian)?
**A.** 30.1 nM

**Q.** And the GI50 (HL-60(TB) leukemia)?
**A.** < 10 nM

**Q.** What about the TGI (HL-60(TB) leukemia) of the same compound?
**A.** < 10 nM

**Q.** What about the GI50 (PC-3 prostate) of the same compound?
**A.** 10.5 nM

**Q.** And the TGI (PC-3 prostate)?
**A.** 23.3 nM

**Q.** What about the GI50 (UACC-62 melanoma) of the same compound?
**A.** < 10 nM

**Q.** And the TGI (UACC-62 melanoma)?
**A.** 19.3 nM

**Q.** And the GI50 (U251 glioblastoma)?
**A.** < 10 nM

**Q.** And the TGI (U251 glioblastoma)?
**A.** 21.2 nM

**Q.** What about the GI50 (HCT-15 colon) of the same compound?
**A.** 23.9 nM

**Q.** And the TGI (HCT-15 colon)?
**A.** 86.9 nM

**Q.** And the GI50 (SF-295 CNS)?
**A.** 13.2 nM

**Q.** What about the TGI (SF-295 CNS) of the same compound?
**A.** 26.1 nM

**Q.** What about the GI50 (T-47D breast) of the same compound?
**A.** < 10 nM

**Q.** What about the TGI (T-47D breast) of the same compound?
**A.** 18 nM

**Q.** And the GI50 (UACC-257 melanoma)?
**A.** 14.6 nM

**Q.** What about the TGI (UACC-257 melanoma) of the same compound?
**A.** 28.8 nM

**Q.** And the GI50 (SR leukemia)?
**A.** < 10 nM

**Q.** And the TGI (SR leukemia)?
**A.** < 10 nM

**Q.** What about the GI50 (HCC-2998 colon) of the same compound?
**A.** < 10 nM

**Q.** And the TGI (HCC-2998 colon)?
**A.** 14 nM

**Q.** And the GI50 (SK-OV-3 ovarian)?
**A.** 14.1 nM

**Q.** And the TGI (SK-OV-3 ovarian)?
**A.** 33.6 nM

**Q.** And the GI50 (LOX IMVI melanoma)?
**A.** < 10 nM

**Q.** And the TGI (LOX IMVI melanoma)?
**A.** < 10 nM

**Q.** What about the GI50 (ACHN renal) of the same compound?
**A.** 33.2 nM

**Q.** And the TGI (ACHN renal)?
**A.** 109 nM

**Q.** What about the GI50 (COLO 205 colon) of the same compound?
**A.** 28.3 nM

**Q.** And the TGI (COLO 205 colon)?
**A.** 105 nM

**Q.** And the GI50 (NCI-H23 lung)?
**A.** < 10 nM

**Q.** And the TGI (NCI-H23 lung)?
**A.** < 10 nM

**Q.** What about the GI50 (OVCAR-3 ovarian) of the same compound?
**A.** < 10 nM

**Q.** And the TGI (OVCAR-3 ovarian)?
**A.** < 10 nM

**Q.** And the GI50 (DU-145 prostate)?
**A.** < 10 nM

**Q.** And the TGI (DU-145 prostate)?
**A.** 19.5 nM

**Q.** What about the GI50 (SNB-19 CNS) of the same compound?
**A.** 12.3 nM

**Q.** And the TGI (SNB-19 CNS)?
**A.** 38.8 nM

**Q.** And the GI50 (NCI-H226 lung)?
**A.** < 10 nM

**Q.** And the TGI (NCI-H226 lung)?
**A.** < 10 nM

**Q.** And the GI50 (HS 578T breast)?
**A.** < 10 nM

**Q.** What about the TGI (HS 578T breast) of the same compound?
**A.** < 10 nM

**Q.** And the GI50 (TK-10 renal)?
**A.** 21.2 nM

**Q.** And the TGI (TK-10 renal)?
**A.** 54 nM

**Q.** And the GI50 (SK-MEL-5 melanoma)?
**A.** < 10 nM

**Q.** What about the TGI (SK-MEL-5 melanoma) of the same compound?
**A.** 21.6 nM

**Q.** And the GI50 (KM12 colon)?
**A.** < 10 nM

**Q.** What about the TGI (KM12 colon) of the same compound?
**A.** < 10 nM

**Q.** What about the GI50 (EKVX NSCLC) of the same compound?
**A.** 13.1 nM

**Q.** What about the TGI (EKVX NSCLC) of the same compound?
**A.** 36.2 nM

**Q.** And the GI50 (MDA-MB-468 breast)?
**A.** < 10 nM

**Q.** What about the TGI (MDA-MB-468 breast) of the same compound?
**A.** 16.1 nM

**Q.** What about the GI50 (BT-549 breast) of the same compound?
**A.** < 10 nM

**Q.** What about the TGI (BT-549 breast) of the same compound?
**A.** < 10 nM

**Q.** What about the GI50 (RPMI-8226 leukemia) of the same compound?
**A.** < 10 nM

**Q.** What about the TGI (RPMI-8226 leukemia) of the same compound?
**A.** < 10 nM

**Q.** And the GI50 (MALME-3M melanoma)?
**A.** < 10 nM

**Q.** What about the TGI (MALME-3M melanoma) of the same compound?
**A.** 18.8 nM

**Q.** And the GI50 (SW-620 colon)?
**A.** < 10 nM

**Q.** What about the TGI (SW-620 colon) of the same compound?
**A.** < 10 nM

**Q.** And the GI50 (HCT-116 colon)?
**A.** < 10 nM

**Q.** What about the TGI (HCT-116 colon) of the same compound?
**A.** < 10 nM

**Q.** And the GI50 (A549 NSCLC)?
**A.** < 10 nM

**Q.** What about the TGI (A549 NSCLC) of the same compound?
**A.** 25.7 nM

**Q.** And the GI50 (OVCAR-5 ovarian)?
**A.** 17.3 nM

**Q.** What about the TGI (OVCAR-5 ovarian) of the same compound?
**A.** 45.3 nM

**Q.** What about the GI50 (SF-539 CNS) of the same compound?
**A.** < 10 nM

**Q.** And the TGI (SF-539 CNS)?
**A.** < 10 nM

**Q.** And the GI50 (CAKI-1 renal)?
**A.** 17.6 nM

**Q.** And the TGI (CAKI-1 renal)?
**A.** 53.9 nM

**Q.** What about the GI50 (HT29 colon) of the same compound?
**A.** < 10 nM

**Q.** And the TGI (HT29 colon)?
**A.** < 10 nM

**Q.** And the GI50 (786-0 renal)?
**A.** < 10 nM

**Q.** What about the TGI (786-0 renal) of the same compound?
**A.** 16.5 nM

**Q.** And the GI50 (MCF7 breast)?
**A.** < 10 nM

**Q.** And the TGI (MCF7 breast)?
**A.** 12.4 nM

**Q.** And the GI50 (NCI-H460 NSCLC)?
**A.** 18.2 nM

**Q.** And the TGI (NCI-H460 NSCLC)?
**A.** 33.6 nM

**Q.** What about the GI50 (M14 melanoma) of the same compound?
**A.** < 10 nM

**Q.** And the TGI (M14 melanoma)?
**A.** 19.1 nM

**Q.** And the GI50 (RXF 393 renal)?
**A.** < 10 nM

**Q.** What about the TGI (RXF 393 renal) of the same compound?
**A.** < 10 nM

**Q.** What about the GI50 (A498 renal) of the same compound?
**A.** < 10 nM

**Q.** And the TGI (A498 renal)?
**A.** 24.5 nM

**Q.** What about the GI50 (OVCAR-8 ovarian) of the same compound?
**A.** 14.6 nM

**Q.** What about the TGI (OVCAR-8 ovarian) of the same compound?
**A.** 28 nM

**Q.** And the GI50 (SK-MEL-28 melanoma)?
**A.** 17.2 nM

**Q.** What about the TGI (SK-MEL-28 melanoma) of the same compound?
**A.** 36.8 nM

**Q.** And the GI50 (NCI-H522 lung)?
**A.** < 10 nM

**Q.** And the TGI (NCI-H522 lung)?
**A.** 10.8 nM

**Q.** And the GI50 (OVCAR-4 ovarian)?
**A.** < 10 nM

**Q.** What about the TGI (OVCAR-4 ovarian) of the same compound?
**A.** 18.3 nM
